# Assay results taken from paper PMC8834506, “Optimization of Thymidine Kinase-Based Safety Switch for Neural Cell Therapy” (Cells, 2022).
# System: Ubi-SR39h post-mitotic neurons differentiated from ReNcells
# Assay type: cell-based, human
# Protocol: Figure 4 EC50 and kinetics of GCV-induced cell death in proliferating and post-mitotic ReNcells. SR39h was expressed in ReNcells (immortalized neural precursor cells that can be differentiated to post-mitotic neurons) under the control of the two different promoters: Ki67 or ubiquitin. Wild type ReNcells were used as control. […] (B–D) Kinetics of cell death of SR39-expressing ReNcells cells either under the control of cycle promoter Ki67 or ubiquitin promoter with increasing GCV concentrations of 1, 10, and 100 µM. Cell viability was measured every 24 h using a bioluminescent ATP-based assay (n = 3). (E) ReNcells were differentiated toward post-mitotic neurons for 21 days then treated with GCV for 10 days. Cell viability was measured using an ATP-based assay. Results are mean + SD of three independent experiments performed in triplicates. […]
# Cell culture plate (96 wells plate Corning #3907, Corning, Lonay, Switzerland) were pre-coated with 60 μL per well of Poly-L-ornithine solution (Sigma, Merk, Eysins, Switzerland) at 37 °C for 30 min. […] For EC50 assays, the medium was changed daily for 4 days, then cell viability was assessed using an ATP-based assay. EC50 values for each construct were calculated using a four parameters equation (GraphPad, Prism8, San Diego, CA, USA). […] Luminescence was measured using Spectra L384/L96 (0.2 sec exposure, Molecular devices, Biberach an der Riß, Germany). […]
compound,measurement,setting,value
"Nc1nc(O)c2ncn(COC(CO)CO)c2n1 [GCV, ganciclovir]",Cell death in post-mitotic neurons (in words),,killed
same,GCV concentration from which cell death induction was detected,"human, 10 days",≥ 10 µM
